Tests used:
Assay type in all cases: functional
M14 = assay: Cytotoxicity against human M14 cells assessed as cell growth at 1 uM after 48 hrs by sulforhodamine B assay relative to control; conditions: M14, 48 h, read-out: Activity
HCT-15 [1] = assay: Cytotoxicity against human HCT15 cells assessed as cell growth at 1 uM after 48 hrs by sulforhodamine B assay relative to control; conditions: HCT-15, 48 h, read-out: Activity
Malme-3M = assay: Cytotoxicity against human MALME-3M cells assessed as cell growth at 100 uM after 48 hrs by sulforhodamine B assay relative to control; conditions: read-out: Activity
MDA-MB-231 = assay: Cytotoxicity against human MDA-MB-231 cells assessed as cell growth at 100 uM after 48 hrs by sulforhodamine B assay relative to control; conditions: MDA-MB-231, 48 h, read-out: Activity
ACHN [2] = assay: Cytotoxicity against human ACHN cells assessed as cell growth at 10 uM after 48 hrs by sulforhodamine B assay relative to control; conditions: read-out: Activity
OVCAR-8 = assay: Cytotoxicity against human OVCAR8 cells assessed as cell growth at 0.01 uM after 48 hrs by sulforhodamine B assay relative to control; conditions: OVCAR-8, 48 h, read-out: Activity
TK-10 [3] = assay: Cytotoxicity against human TK10 cells assessed as growth inhibition after 48 hrs by sulforhodamine B assay; conditions: TK-10, 48 h
SK-MEL-5 = assay: Cytotoxicity against human SK-MEL-5 cells assessed as growth inhibition after 48 hrs by sulforhodamine B assay; conditions: SK-MEL-5, 48 h
SW-620 = assay: Cytotoxicity against human SW620 cells assessed as cell growth at 0.01 uM after 48 hrs by sulforhodamine B assay relative to control; conditions: SW-620, 48 h, read-out: Activity
HOP-62 = assay: Cytotoxicity against human HOP62 cells assessed as growth inhibition after 48 hrs by sulforhodamine B assay; conditions: HOP-62, 48 h
RPMI-8226 = assay: Cytotoxicity against human RPMI8226 cells assessed as growth inhibition after 48 hrs by sulforhodamine B assay; conditions: RPMI-8226, 48 h
TK-10 [4] = assay: Cytotoxicity against human TK10 cells assessed as cell growth at 10 uM after 48 hrs by sulforhodamine B assay relative to control; conditions: TK-10, 48 h, read-out: Activity
NCI-H23 = assay: Cytotoxicity against human NCI-H23 cells assessed as growth inhibition after 48 hrs by sulforhodamine B assay; conditions: NCI-H23, 48 h; for CC50: read-out: LC50 (the source's name)
KM12 = assay: Cytotoxicity against human KM12 cells assessed as cell growth at 100 uM after 48 hrs by sulforhodamine B assay relative to control; conditions: KM12, 48 h, read-out: Activity
TK-10 [5] = assay: Cytotoxicity against human TK10 cells assessed as cell growth at 0.01 uM after 48 hrs by sulforhodamine B assay relative to control; conditions: TK-10, 48 h, read-out: Activity
A498 [6] = assay: Cytotoxicity against human A498 cells assessed as cell growth at 0.1 uM after 48 hrs by sulforhodamine B assay relative to control; conditions: A498, 48 h, read-out: Activity
HCC 2998 = assay: Cytotoxicity against human HCC2998 cells assessed as cell growth at 10 uM after 48 hrs by sulforhodamine B assay relative to control; conditions: HCC 2998, 48 h, read-out: Activity
ACHN [7] = assay: Cytotoxicity against human ACHN cells assessed as cell growth at 0.01 uM after 48 hrs by sulforhodamine B assay relative to control; conditions: read-out: Activity
SK-MEL-28 = assay: Cytotoxicity against human SK-MEL-28 cells assessed as cell growth at 0.1 uM after 48 hrs by sulforhodamine B assay relative to control; conditions: SK-MEL-28, 48 h, read-out: Activity
HT-29 = assay: Cytotoxicity against human HT-29 cells assessed as cell growth at 0.1 uM after 48 hrs by sulforhodamine B assay relative to control; conditions: HT-29, 48 h, read-out: Activity
PC-3 [8] = assay: Cytotoxicity against human PC3 cells assessed as cell growth at 10 uM after 48 hrs by sulforhodamine B assay relative to control; conditions: PC-3, 48 h, read-out: Activity
PC-3 [9] = assay: Cytotoxicity against human PC3 cells assessed as cell growth at 100 uM after 48 hrs by sulforhodamine B assay relative to control; conditions: PC-3, 48 h, read-out: Activity
MDA-MB-435 = assay: Cytotoxicity against human MDA-MB-435 cells assessed as cell growth at 0.1 uM after 48 hrs by sulforhodamine B assay relative to control; conditions: MDA-MB-435, 48 h, read-out: Activity
MDA-MB-468 = assay: Cytotoxicity against human MDA-MB-468 cells assessed as cell growth at 1 uM after 48 hrs by sulforhodamine B assay relative to control; conditions: MDA-MB-468, 48 h, read-out: Activity
SNB-19 = assay: Cytotoxicity against human SNB19 cells assessed as growth inhibition after 48 hrs by sulforhodamine B assay; conditions: SNB-19, 48 h; for CC50: read-out: LC50 (the source's name)
BT-549 = assay: Cytotoxicity against human BT549 cells assessed as cell growth at 100 uM after 48 hrs by sulforhodamine B assay relative to control; conditions: BT-549, 48 h, read-out: Activity
HCT-15 [10] = assay: Cytotoxicity against human HCT15 cells assessed as cell growth at 0.1 uM after 48 hrs by sulforhodamine B assay relative to control; conditions: HCT-15, 48 h, read-out: Activity
MOLT-4 = assay: Cytotoxicity against human MOLT4 cells assessed as cell growth at 100 uM after 48 hrs by sulforhodamine B assay relative to control; conditions: MOLT-4, 48 h, read-out: Activity
NCI-H460 = assay: Cytotoxicity against human NCI-H460 cells assessed as cell growth at 0.01 uM after 48 hrs by sulforhodamine B assay relative to control; conditions: NCI-H460, 48 h, read-out: Activity
A498 [11] = assay: Cytotoxicity against human A498 cells assessed as growth inhibition after 48 hrs by sulforhodamine B assay; conditions: A498, 48 h
SR = assay: Cytotoxicity against human SR cells assessed as cell growth at 0.1 uM after 48 hrs by sulforhodamine B assay relative to control; conditions: read-out: Activity
UO-31 = assay: Cytotoxicity against human UO31 cells assessed as growth inhibition after 48 hrs by sulforhodamine B assay; conditions: UO-31, 48 h
DU-145 = assay: Cytotoxicity against human DU145 cells assessed as cell growth at 1 uM after 48 hrs by sulforhodamine B assay relative to control; conditions: DU-145, 48 h, read-out: Activity
ACHN [12] = assay: Cytotoxicity against human ACHN cells assessed as cell growth at 100 uM after 48 hrs by sulforhodamine B assay relative to control; conditions: read-out: Activity
NCI/ADR-RES = assay: Cytotoxicity against human NCI/ADR-RES cells assessed as cell growth at 0.1 uM after 48 hrs by sulforhodamine B assay relative to control; conditions: read-out: Activity

COc1ccc(C(=O)/C=C/c2cc(-c3ccc4c(c3)OCO4)n[nH]2)cc1OC
growth at 1 µM (M14): 100% | growth at 1 µM (HCT-15 [1]): 86% | growth at 100 µM (Malme-3M): -74% | growth at 100 µM (MDA-MB-231): -86% | growth at 10 µM (ACHN [2]): 13% | growth at 0.01 µM (OVCAR-8): 99% | GI50 (TK-10 [3]): 2.88 µM | LC50 (TK-10 [3]): 70.4 µM | TGI (TK-10 [3]): 8.97 µM | LC50 (concentration killing 50% of cells) (SK-MEL-5): 46.4 µM | TGI (SK-MEL-5): 19.9 µM | growth at 0.01 µM (SW-620): 100% | LC50 (HOP-62): 25.8 µM | TGI (HOP-62): 5.6 µM | LC50 (RPMI-8226): > 100 µM | TGI (RPMI-8226): 5.24 µM | growth at 10 µM (TK-10 [4]): -5% | TGI (NCI-H23): 19.6 µM | CC50 (NCI-H23): 66 µM | growth at 100 µM (KM12): -90% | growth at 0.01 µM (TK-10 [5]): 91% | growth at 0.1 µM (A498 [6]): 80% | growth at 10 µM (HCC 2998): 27% | growth at 0.01 µM (ACHN [7]): 101% | growth at 0.1 µM (SK-MEL-28): 104% | growth at 0.1 µM (HT-29): 92% | growth at 10 µM (PC-3 [8]): 16% | growth at 100 µM (PC-3 [9]): -45% | growth at 0.1 µM (MDA-MB-435): 99% | growth at 1 µM (MDA-MB-468): 85% | TGI (SNB-19): 15.2 µM | CC50 (SNB-19): 40.8 µM | growth at 100 µM (BT-549): -90% | growth at 0.1 µM (HCT-15 [10]): 95% | growth at 100 µM (MOLT-4): -20% | growth at 0.01 µM (NCI-H460): 101% | LC50 (A498 [11]): 13.9 µM | TGI (A498 [11]): 4.23 µM | growth at 0.1 µM (SR): 88% | GI50 (UO-31): 2.32 µM | LC50 (UO-31): 34.5 µM | TGI (UO-31): 10.1 µM | growth at 1 µM (DU-145): 88% | growth at 100 µM (ACHN [12]): -4%

COc1cc(-c2cc(/C=C/C(=O)c3ccc(N)cc3)[nH]n2)cc(OC)c1OC
growth at 1 µM (M14): 90% | growth at 0.1 µM (NCI/ADR-RES): 110% | growth at 1 µM (HCT-15 [1]): 60% | growth at 100 µM (Malme-3M): -76% | growth at 100 µM (MDA-MB-231): -77% | growth at 10 µM (ACHN [2]): -61% | growth at 0.01 µM (OVCAR-8): 100% | GI50 (TK-10 [3]): 4.84 µM | LC50 (TK-10 [3]): 51.6 µM | TGI (TK-10 [3]): 17.5 µM | GI50 (SK-MEL-5): 1.65 µM | LC50 (concentration killing 50% of cells) (SK-MEL-5): 5.69 µM | TGI (SK-MEL-5): 3.06 µM | growth at 0.01 µM (SW-620): 95% | GI50 (HOP-62): 1.77 µM | LC50 (HOP-62): 8.7 µM | TGI (HOP-62): 3.92 µM | GI50 (RPMI-8226): 0.47 µM | LC50 (RPMI-8226): > 100 µM | TGI (RPMI-8226): 2.77 µM | growth at 10 µM (TK-10 [4]): 26% | GI50 (NCI-H23): 2.48 µM | TGI (NCI-H23): 6.79 µM | CC50 (NCI-H23): 73.2 µM | growth at 100 µM (KM12): -79% | growth at 0.01 µM (TK-10 [5]): 102% | growth at 0.1 µM (A498 [6]): 85% | growth at 10 µM (HCC 2998): -86% | growth at 0.01 µM (ACHN [7]): 95% | growth at 0.1 µM (SK-MEL-28): 95% | growth at 0.1 µM (HT-29): 102% | growth at 10 µM (PC-3 [8]): 1% | growth at 100 µM (PC-3 [9]): -39% | growth at 0.1 µM (MDA-MB-435): 95% | growth at 1 µM (MDA-MB-468): 50% | GI50 (SNB-19): 2.34 µM | TGI (SNB-19): 9.98 µM | CC50 (SNB-19): 34 µM | growth at 100 µM (BT-549): -97% | growth at 0.1 µM (HCT-15 [10]): 94% | growth at 100 µM (MOLT-4): -20% | growth at 0.01 µM (NCI-H460): 102% | GI50 (A498 [11]): 1.64 µM | LC50 (A498 [11]): 13.4 µM | TGI (A498 [11]): 4.33 µM | growth at 0.1 µM (SR): 87% | GI50 (UO-31): 1.36 µM | LC50 (UO-31): 6 µM | TGI (UO-31): 2.86 µM | growth at 1 µM (DU-145): 78% | growth at 100 µM (ACHN [12]): -63%
